Assay [1] deals with Casein kinase II subunit alpha (Homo sapiens, UniProt P68400). As to the kind of experiment: Kinase Assay. As for the experimental part:
(§1) Selected compounds were screened against a panel of mammalian kinases. Compounds were supplied in DMSO and screened in duplicates at 100 uM concentration using a radioactive (33P-ATP) filter-binding-assay.

Assay [2] has as its target MAP kinase-activated protein kinase 3 (Homo sapiens, UniProt Q16644). Description: Kinase Assay. How it is done: as §1
Assay [3] addresses Proto-oncogene tyrosine-protein kinase Src (Gallus gallus, UniProt P00523). As to the kind of experiment: Kinase Assay. As for the experimental part:
as §1

The target of assay [4] is Ribosomal protein S6 kinase alpha-3 (Homo sapiens, UniProt P51812). Description: Kinase Assay. How it is done:
as §1

The target in a further assay is SRSF protein kinase 1 (Homo sapiens, UniProt Q96SB4). Description: Kinase Assay. As for the experimental part: as §1
In another assay the target is T1, Aurora kinase A (Homo sapiens, UniProt O14965).
T1 sequence (O14965 whole entry): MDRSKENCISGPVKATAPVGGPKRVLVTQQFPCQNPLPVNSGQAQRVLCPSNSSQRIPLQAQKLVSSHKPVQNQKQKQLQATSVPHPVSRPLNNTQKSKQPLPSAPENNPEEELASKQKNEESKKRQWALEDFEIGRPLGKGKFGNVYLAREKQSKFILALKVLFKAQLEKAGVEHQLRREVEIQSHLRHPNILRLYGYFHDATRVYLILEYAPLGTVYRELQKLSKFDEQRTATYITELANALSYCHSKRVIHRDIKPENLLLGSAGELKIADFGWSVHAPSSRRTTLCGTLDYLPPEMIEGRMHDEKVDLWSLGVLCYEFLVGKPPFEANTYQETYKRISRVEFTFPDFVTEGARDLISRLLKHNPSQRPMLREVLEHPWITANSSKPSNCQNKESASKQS
As to the kind of experiment: Kinase Assay. As for the experimental part:
as §1

The target of assay [5] is Cyclin-dependent kinase 2 (Homo sapiens, UniProt P24941). Description: Kinase Assay. As for the experimental part: as §1
Assay [6] deals with Dual specificity protein kinase CLK2 (Homo sapiens, UniProt P49760). Description: Kinase Assay. As for the experimental part:
as §1

Assay [7] deals with Fibroblast growth factor receptor 1 (Homo sapiens, UniProt P11362). As to the kind of experiment: Kinase Assay. How it is done:
as §1

The target of assay [8] is Insulin-like growth factor 1 receptor (Homo sapiens, UniProt P08069). As to the kind of experiment: Kinase Assay. How it is done:
as §1

In assay [9] the target is T2, Mitogen-activated protein kinase kinase kinase 7 (Homo sapiens, UniProt O43318).
T2 sequence (O43318 whole entry): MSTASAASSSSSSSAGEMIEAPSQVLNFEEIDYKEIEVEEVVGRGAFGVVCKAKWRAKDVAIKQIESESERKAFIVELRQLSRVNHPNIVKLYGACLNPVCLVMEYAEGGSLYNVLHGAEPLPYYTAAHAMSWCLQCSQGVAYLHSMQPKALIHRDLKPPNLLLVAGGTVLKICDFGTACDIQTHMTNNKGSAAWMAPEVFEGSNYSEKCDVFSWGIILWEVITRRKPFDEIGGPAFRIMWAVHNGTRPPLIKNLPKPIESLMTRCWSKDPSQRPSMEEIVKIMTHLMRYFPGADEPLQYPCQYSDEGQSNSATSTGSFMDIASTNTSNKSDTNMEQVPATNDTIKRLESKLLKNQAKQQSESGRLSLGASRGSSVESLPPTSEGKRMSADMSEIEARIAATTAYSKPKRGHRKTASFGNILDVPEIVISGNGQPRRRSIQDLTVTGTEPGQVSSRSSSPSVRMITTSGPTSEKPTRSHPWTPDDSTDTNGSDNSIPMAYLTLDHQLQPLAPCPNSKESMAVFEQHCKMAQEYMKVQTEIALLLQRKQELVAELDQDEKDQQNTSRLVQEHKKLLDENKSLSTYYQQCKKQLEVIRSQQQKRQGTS
Description: Kinase Assay. How it is done: as §1

The target of assay [10] is Germinal center kinase MAP4K2 (Homo sapiens). Description: Selected compounds were screened against a panel of mammalian kinases. Compounds were supplied in DMSO and screened in duplicates at 100 uM concentration using a radioactive (33P-ATP) filter-binding-assay.
Assay [11] concerns the target Serine/threonine-protein kinase Chk2 (Homo sapiens, UniProt O96017). Description: Kinase Assay. How it is done: as §1
Assay [12] concerns the target Tyrosine-protein kinase Yes (Homo sapiens, UniProt P07947). As to the kind of experiment: Kinase Assay. How it is done: as §1
Assay [13] has as its target Vascular endothelial growth factor receptor 2 (Homo sapiens, UniProt P35968). Description: Kinase Assay. As for the experimental part:
as §1

Assay [14] deals with Glycogen synthase kinase-3 beta (Homo sapiens, UniProt P49841). Description: Kinase Assay. How it is done: as §1
The target in assay [15] is T3, Serine/threonine-protein kinase Sgk1 (Homo sapiens, UniProt O00141).
T3 sequence (O00141 whole entry): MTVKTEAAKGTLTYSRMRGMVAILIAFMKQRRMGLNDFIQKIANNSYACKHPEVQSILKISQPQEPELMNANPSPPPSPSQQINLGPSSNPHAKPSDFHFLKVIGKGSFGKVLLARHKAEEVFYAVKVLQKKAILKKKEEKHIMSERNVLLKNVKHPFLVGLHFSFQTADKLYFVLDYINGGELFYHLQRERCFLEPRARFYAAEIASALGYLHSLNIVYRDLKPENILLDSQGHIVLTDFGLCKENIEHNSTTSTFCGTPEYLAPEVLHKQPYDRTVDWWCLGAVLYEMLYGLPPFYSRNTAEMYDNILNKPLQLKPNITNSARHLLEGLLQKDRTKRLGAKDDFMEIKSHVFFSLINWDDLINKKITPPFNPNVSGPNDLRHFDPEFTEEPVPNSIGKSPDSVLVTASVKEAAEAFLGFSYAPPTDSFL
Description: Kinase Assay. As for the experimental part: as §1

The target of another assay is T4, Ephrin type-B receptor 3 (Homo sapiens, UniProt P54753).
T4 sequence (P54753 whole entry): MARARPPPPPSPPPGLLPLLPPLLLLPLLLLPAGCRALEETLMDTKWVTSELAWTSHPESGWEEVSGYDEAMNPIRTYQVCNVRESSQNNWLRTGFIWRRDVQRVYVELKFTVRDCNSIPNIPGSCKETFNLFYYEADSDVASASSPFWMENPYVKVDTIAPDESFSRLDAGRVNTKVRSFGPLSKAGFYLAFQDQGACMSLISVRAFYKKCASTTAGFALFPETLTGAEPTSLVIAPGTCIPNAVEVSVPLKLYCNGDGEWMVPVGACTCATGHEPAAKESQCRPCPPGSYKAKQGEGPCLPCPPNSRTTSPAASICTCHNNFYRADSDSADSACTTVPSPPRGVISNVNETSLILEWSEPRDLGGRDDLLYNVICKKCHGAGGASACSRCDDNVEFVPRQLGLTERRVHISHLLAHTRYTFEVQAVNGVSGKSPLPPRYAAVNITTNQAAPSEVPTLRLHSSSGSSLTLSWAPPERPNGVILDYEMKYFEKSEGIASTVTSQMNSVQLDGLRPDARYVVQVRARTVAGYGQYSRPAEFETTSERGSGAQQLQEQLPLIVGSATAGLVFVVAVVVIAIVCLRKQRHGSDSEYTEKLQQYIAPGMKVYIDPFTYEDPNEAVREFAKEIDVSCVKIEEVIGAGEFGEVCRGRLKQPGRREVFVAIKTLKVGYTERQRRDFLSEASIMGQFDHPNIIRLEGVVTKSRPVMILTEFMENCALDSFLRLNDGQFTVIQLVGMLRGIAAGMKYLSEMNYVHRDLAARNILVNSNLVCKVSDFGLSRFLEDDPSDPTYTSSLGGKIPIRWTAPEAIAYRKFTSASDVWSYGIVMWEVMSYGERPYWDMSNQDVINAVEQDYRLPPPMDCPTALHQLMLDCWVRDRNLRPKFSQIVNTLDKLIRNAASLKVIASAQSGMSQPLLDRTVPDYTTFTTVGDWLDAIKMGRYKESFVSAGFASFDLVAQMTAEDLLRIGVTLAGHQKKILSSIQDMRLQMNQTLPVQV
Description: Kinase Assay. As for the experimental part:
as §1

Assay [16] concerns the target Serine/threonine-protein kinase pim-1 (Homo sapiens, UniProt P11309). Description: Kinase Assay. How it is done: as §1
In assay [17] the target is Serine/threonine-protein kinase pim-3 (Homo sapiens, UniProt Q86V86). Description: Kinase Assay. How it is done:
as §1

The structures appear in SMILES notation.

Sequence of Fibroblast growth factor receptor 1 (P11362 whole entry): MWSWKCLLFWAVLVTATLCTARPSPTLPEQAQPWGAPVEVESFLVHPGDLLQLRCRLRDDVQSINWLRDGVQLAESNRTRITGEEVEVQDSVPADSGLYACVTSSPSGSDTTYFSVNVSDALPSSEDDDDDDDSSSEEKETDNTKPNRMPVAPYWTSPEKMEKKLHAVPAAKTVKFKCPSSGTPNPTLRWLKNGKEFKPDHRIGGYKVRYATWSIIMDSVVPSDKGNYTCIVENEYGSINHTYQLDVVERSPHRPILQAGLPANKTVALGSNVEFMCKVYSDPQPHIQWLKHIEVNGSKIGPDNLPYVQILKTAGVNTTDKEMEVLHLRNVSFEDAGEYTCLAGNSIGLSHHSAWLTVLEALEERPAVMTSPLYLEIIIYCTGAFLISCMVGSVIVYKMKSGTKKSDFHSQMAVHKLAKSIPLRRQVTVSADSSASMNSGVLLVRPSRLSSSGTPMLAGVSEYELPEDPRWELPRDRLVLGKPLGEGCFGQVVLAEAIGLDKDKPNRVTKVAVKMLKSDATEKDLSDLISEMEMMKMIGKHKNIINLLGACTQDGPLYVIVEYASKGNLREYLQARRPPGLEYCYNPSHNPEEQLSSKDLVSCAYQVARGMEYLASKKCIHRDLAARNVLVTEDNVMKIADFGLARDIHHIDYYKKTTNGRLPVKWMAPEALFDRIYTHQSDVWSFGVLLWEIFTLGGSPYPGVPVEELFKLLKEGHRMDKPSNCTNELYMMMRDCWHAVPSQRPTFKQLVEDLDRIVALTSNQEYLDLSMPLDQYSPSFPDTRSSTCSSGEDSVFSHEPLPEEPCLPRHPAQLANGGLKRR
Sequence of Casein kinase II subunit alpha (P68400 whole entry): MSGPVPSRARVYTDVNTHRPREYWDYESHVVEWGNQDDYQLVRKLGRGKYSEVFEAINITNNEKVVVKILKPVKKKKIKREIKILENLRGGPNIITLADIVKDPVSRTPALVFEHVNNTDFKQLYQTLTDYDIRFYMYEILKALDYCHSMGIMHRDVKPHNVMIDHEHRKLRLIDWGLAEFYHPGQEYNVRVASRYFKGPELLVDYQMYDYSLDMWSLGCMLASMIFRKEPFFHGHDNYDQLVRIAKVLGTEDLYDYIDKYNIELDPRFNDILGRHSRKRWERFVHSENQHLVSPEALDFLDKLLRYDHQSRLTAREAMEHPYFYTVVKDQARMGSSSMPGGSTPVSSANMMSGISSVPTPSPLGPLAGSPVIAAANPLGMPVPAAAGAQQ
Sequence of Insulin-like growth factor 1 receptor (P08069 31-736 limits assumed): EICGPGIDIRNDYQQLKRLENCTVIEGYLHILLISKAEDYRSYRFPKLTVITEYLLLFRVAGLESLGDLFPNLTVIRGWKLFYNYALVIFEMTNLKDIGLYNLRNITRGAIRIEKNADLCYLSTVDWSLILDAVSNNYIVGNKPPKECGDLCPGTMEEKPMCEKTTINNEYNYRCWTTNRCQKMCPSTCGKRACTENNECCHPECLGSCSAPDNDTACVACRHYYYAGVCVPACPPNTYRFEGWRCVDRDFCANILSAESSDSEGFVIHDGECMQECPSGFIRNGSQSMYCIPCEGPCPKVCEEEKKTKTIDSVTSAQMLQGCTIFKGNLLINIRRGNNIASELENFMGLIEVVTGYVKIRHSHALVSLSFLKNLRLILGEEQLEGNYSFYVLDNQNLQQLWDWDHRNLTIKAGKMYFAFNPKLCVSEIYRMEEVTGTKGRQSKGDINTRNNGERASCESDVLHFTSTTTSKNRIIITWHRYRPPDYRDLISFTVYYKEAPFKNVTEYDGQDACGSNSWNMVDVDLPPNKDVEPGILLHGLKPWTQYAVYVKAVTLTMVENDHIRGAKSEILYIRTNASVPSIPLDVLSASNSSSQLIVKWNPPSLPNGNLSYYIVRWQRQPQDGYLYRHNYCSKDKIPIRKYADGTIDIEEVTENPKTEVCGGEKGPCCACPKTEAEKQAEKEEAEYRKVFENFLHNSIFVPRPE
Sequence of Insulin-like growth factor 1 receptor (P08069 741-1367 limits assumed): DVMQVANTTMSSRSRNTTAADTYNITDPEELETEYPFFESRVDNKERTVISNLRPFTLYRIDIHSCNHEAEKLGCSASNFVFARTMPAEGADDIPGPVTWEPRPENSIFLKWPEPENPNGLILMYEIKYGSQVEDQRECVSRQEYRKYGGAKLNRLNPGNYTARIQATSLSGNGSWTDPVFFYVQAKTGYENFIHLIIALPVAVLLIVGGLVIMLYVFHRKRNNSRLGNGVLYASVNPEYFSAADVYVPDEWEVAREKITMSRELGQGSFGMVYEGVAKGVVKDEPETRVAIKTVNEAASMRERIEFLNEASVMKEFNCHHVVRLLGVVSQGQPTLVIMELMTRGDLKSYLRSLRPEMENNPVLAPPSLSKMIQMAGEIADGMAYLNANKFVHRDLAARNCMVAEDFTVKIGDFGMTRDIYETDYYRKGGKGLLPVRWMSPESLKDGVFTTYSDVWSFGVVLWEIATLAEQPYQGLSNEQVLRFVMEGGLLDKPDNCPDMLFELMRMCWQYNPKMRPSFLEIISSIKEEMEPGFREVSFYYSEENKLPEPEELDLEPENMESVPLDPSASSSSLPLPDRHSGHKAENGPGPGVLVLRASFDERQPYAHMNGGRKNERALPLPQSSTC
Sequence of SRSF protein kinase 1 (Q96SB4 whole entry): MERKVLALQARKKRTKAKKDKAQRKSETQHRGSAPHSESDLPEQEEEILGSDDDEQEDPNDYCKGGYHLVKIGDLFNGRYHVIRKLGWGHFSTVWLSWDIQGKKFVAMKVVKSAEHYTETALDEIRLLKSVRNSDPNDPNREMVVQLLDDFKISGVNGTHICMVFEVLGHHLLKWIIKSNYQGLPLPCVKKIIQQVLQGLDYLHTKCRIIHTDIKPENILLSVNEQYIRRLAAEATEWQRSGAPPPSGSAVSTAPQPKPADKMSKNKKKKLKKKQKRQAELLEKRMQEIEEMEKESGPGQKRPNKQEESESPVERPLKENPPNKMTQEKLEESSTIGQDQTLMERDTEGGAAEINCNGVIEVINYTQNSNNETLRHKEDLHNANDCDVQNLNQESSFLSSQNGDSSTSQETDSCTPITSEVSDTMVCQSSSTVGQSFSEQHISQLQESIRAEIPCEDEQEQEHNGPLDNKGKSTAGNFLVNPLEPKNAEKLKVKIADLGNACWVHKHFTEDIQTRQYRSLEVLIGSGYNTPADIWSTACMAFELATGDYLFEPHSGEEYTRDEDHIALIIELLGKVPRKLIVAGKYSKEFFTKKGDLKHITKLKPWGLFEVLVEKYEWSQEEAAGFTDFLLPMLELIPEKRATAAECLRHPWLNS
Sequence of Glycogen synthase kinase-3 beta (P49841 whole entry): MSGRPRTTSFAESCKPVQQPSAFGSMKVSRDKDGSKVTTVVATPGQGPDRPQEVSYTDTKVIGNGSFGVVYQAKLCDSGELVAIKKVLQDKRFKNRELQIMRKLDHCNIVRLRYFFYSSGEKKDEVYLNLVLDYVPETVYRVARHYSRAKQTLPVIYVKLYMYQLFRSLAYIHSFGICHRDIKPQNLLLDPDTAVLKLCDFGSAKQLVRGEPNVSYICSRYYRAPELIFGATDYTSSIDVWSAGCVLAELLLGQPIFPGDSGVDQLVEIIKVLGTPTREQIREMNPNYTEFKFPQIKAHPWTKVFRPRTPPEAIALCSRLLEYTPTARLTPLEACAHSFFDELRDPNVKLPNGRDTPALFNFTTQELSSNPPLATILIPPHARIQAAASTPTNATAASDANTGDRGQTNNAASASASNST
Sequence of Serine/threonine-protein kinase pim-1 (P11309 whole entry): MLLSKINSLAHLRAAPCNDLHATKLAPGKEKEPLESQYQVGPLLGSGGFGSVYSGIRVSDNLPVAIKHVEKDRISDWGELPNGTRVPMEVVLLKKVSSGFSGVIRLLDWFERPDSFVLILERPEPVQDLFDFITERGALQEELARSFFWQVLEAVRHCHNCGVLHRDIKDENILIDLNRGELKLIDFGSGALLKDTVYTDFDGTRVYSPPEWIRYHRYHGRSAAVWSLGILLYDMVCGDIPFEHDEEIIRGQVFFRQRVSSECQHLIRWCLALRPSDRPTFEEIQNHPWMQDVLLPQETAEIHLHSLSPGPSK
Sequence of Tyrosine-protein kinase Yes (P07947 whole entry): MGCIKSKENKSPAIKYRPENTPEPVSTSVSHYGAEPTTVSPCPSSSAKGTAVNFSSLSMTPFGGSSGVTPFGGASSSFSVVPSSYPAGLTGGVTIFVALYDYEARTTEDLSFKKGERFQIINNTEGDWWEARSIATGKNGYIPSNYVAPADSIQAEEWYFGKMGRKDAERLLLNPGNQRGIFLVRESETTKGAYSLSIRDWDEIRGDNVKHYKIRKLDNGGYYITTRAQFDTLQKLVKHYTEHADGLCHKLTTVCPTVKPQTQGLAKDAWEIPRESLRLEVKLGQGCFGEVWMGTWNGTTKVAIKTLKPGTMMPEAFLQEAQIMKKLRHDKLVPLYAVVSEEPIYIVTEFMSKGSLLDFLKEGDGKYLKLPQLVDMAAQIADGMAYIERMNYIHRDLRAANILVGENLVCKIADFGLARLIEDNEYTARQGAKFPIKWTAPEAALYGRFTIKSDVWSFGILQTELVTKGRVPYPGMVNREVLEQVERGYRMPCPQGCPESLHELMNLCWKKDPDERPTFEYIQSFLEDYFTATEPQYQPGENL

For the molecule `CC1CN(c2nc3ccccn3c(=O)c2N)CC(C)O1` (stereo unspecified) [Kinase inhibitor, A1], the IC50 (usually the concentration at which inhibition is half-maximal) in [1] stood at 18 µM; in assay [2], 21 µM; in assay [3] it was 97 µM; in [4], 196 µM; against SRSF protein kinase 1 it was 114 µM.
With `Nc1cnc2c(-c3c(F)cccc3F)cccn2c1=O` [Kinase inhibitor, A2], the IC50 at Aurora kinase A amounted to 188 µM; in assay [1] it was 131 µM; in assay [5], 26 µM; in assay [6], 25 µM; in assay [7], 252 µM; in assay [8], 47 µM. Besides, the half-inhibitory concentration (IC50) in assay [9] worked out at 24 µM; in assay [10] it was 4 µM.
As for `Nc1nc2cnc(-c3ccccc3)cn2n1` [Kinase inhibitor, B1], the IC50 amounted to 25 µM in [8]; 11 µM in [9]; 20 µM in [3]; 17 µM in assay [11]; 21 µM in assay [12]; 39 µM in [13]. In assay [10], the IC50 turned out to be 6 µM.
For `COc1ccc(-c2cc3c(=O)[nH]cnc3s2)cc1OC` [Kinase inhibitor, C2], the IC50 in assay [14] was 25 µM; in assay [15] it was 110 µM.
On to `CC(C)(C)Nc1c(C2CC2)[nH]c2ncnn12` [Kinase inhibitor, D1], for which the figures for the IC50 (at Ephrin type-B receptor 3; in [7]) were 158 µM and 469 µM, respectively.
Take `O=c1cc(-c2ccccc2F)nc2[nH]ccn12` [Kinase inhibitor, F3]: the IC50 in assay [16] turned out to be 22 µM; in assay [17], 14 µM.

Source of the values: BindingDB's records for doi:10.1021/cb300729y (University of Dundee, 2013).
